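1) Cells in 96-well plates. 2) Compound, 48 h, 5 concentrations. 3) Linear interpolation between surrounding doses. 4) Unreached endpoint = highest concentration. The concentration for 50% growth inhibition is given as GI50. The concentration for full growth arrest is given as TGI.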
Key:
Assay in all cases: NCI tumour cell line growth inhibition, 48 h
OVCAR-5 ovarian = tested on: OVCAR-5 ovarian
SK-MEL-5 melanoma = tested on: SK-MEL-5 melanoma
UACC-257 melanoma = tested on: UACC-257 melanoma
A549 NSCLC = tested on: A549 NSCLC
SF-539 CNS = tested on: SF-539 CNS
CCRF-CEM leukemia = tested on: CCRF-CEM leukemia
MOLT-4 leukemia = tested on: MOLT-4 leukemia
ACHN renal = tested on: ACHN renal
SK-OV-3 ovarian = tested on: SK-OV-3 ovarian
M19-MEL melanoma = tested on: M19-MEL melanoma
LOX IMVI melanoma = tested on: LOX IMVI melanoma
HOP-62 NSCLC = tested on: HOP-62 NSCLC
RPMI-8226 leukemia = tested on: RPMI-8226 leukemia
EKVX NSCLC = tested on: EKVX NSCLC
NCI-H226 lung = tested on: NCI-H226 lung
OVCAR-4 ovarian = tested on: OVCAR-4 ovarian
SK-MEL-2 melanoma = tested on: SK-MEL-2 melanoma
DMS 114 small cell lung = tested on: DMS 114 small cell lung
HCC-2998 colon = tested on: HCC-2998 colon
HOP-18 NSCLC = tested on: HOP-18 NSCLC
SNB-19 CNS = tested on: SNB-19 CNS
SF-295 CNS = tested on: SF-295 CNS
786-0 renal = tested on: 786-0 renal
SK-MEL-28 melanoma = tested on: SK-MEL-28 melanoma
RXF 393 renal = tested on: RXF 393 renal
NCI-H23 lung = tested on: NCI-H23 lung
SF-268 CNS = tested on: SF-268 CNS
SNB-78 CNS = tested on: SNB-78 CNS
HOP-92 NSCLC = tested on: HOP-92 NSCLC
K-562 leukemia = tested on: K-562 leukemia
TK-10 renal = tested on: TK-10 renal
LXFL 529 NSCLC = tested on: LXFL 529 NSCLC
MALME-3M melanoma = tested on: MALME-3M melanoma
HCT-15 colon = tested on: HCT-15 colon
A498 renal = tested on: A498 renal
UACC-62 melanoma = tested on: UACC-62 melanoma
HCT-116 colon = tested on: HCT-116 colon
KM20L2 colon = tested on: KM20L2 colon
M14 melanoma = tested on: M14 melanoma
DMS 273 small cell lung = tested on: DMS 273 small cell lung
XF 498 CNS = tested on: XF 498 CNS
DLD-1 colon = tested on: DLD-1 colon
COLO 205 colon = tested on: COLO 205 colon
HT29 colon = tested on: HT29 colon
CAKI-1 renal = tested on: CAKI-1 renal
OVCAR-3 ovarian = tested on: OVCAR-3 ovarian
KM12 colon = tested on: KM12 colon
NCI-H460 lung = tested on: NCI-H460 lung
HL-60(TB) leukemia = tested on: HL-60(TB) leukemia
NCI-H522 lung = tested on: NCI-H522 lung
SW-620 colon = tested on: SW-620 colon
RXF-631 renal = tested on: RXF-631 renal
IGROV1 ovarian = tested on: IGROV1 ovarian
OVCAR-8 ovarian = tested on: OVCAR-8 ovarian
UO-31 renal = tested on: UO-31 renal
SN12C renal = tested on: SN12C renal
SNB-75 CNS = tested on: SNB-75 CNS
U251 CNS = tested on: U251 CNS
SR leukemia = tested on: SR leukemia

O=C([O-])c1ccc2c(c1)-c1nc-2nc2[n-]c(nc3nc(nc4[n-]c(n1)c1ccc(C(=O)[O-])cc41)-c1cc(C(=O)[O-])ccc1-3)c1ccc(C(=O)[O-])cc21.[Fe+2]
GI50 (OVCAR-5 ovarian): > 50 µM | TGI (OVCAR-5 ovarian): > 50 µM | GI50 (SK-MEL-5 melanoma): > 50 µM | TGI (SK-MEL-5 melanoma): > 50 µM | GI50 (UACC-257 melanoma): > 50 µM | TGI (UACC-257 melanoma): > 50 µM | GI50 (A549 NSCLC): > 50 µM | TGI (A549 NSCLC): > 50 µM | GI50 (SF-539 CNS): > 29.5 µM | TGI (SF-539 CNS): > 50 µM | GI50 (CCRF-CEM leukemia): > 22.2 µM | TGI (CCRF-CEM leukemia): > 31.3 µM | GI50 (MOLT-4 leukemia): > 50 µM | TGI (MOLT-4 leukemia): > 50 µM | GI50 (ACHN renal): > 50 µM | TGI (ACHN renal): > 50 µM | GI50 (SK-OV-3 ovarian): > 50 µM | TGI (SK-OV-3 ovarian): > 50 µM | GI50 (M19-MEL melanoma): > 31.8 µM | TGI (M19-MEL melanoma): > 50 µM | GI50 (LOX IMVI melanoma): 20.7 µM | TGI (LOX IMVI melanoma): > 42.9 µM | GI50 (HOP-62 NSCLC): > 50 µM | TGI (HOP-62 NSCLC): > 50 µM | GI50 (RPMI-8226 leukemia): > 27.3 µM | TGI (RPMI-8226 leukemia): > 36.4 µM | GI50 (EKVX NSCLC): > 50 µM | TGI (EKVX NSCLC): > 50 µM | GI50 (NCI-H226 lung): > 50 µM | TGI (NCI-H226 lung): > 50 µM | GI50 (OVCAR-4 ovarian): 49.2 µM | TGI (OVCAR-4 ovarian): > 50 µM | GI50 (SK-MEL-2 melanoma): > 50 µM | TGI (SK-MEL-2 melanoma): > 50 µM | GI50 (DMS 114 small cell lung): > 23.2 µM | TGI (DMS 114 small cell lung): > 32.6 µM | GI50 (HCC-2998 colon): > 50 µM | TGI (HCC-2998 colon): > 50 µM | GI50 (HOP-18 NSCLC): > 50 µM | TGI (HOP-18 NSCLC): > 50 µM | GI50 (SNB-19 CNS): > 50 µM | TGI (SNB-19 CNS): > 50 µM | GI50 (SF-295 CNS): > 50 µM | TGI (SF-295 CNS): > 50 µM | GI50 (786-0 renal): > 30.7 µM | TGI (786-0 renal): > 50 µM | GI50 (SK-MEL-28 melanoma): > 50 µM | TGI (SK-MEL-28 melanoma): > 50 µM | GI50 (RXF 393 renal): > 50 µM | TGI (RXF 393 renal): > 50 µM | GI50 (NCI-H23 lung): > 50 µM | TGI (NCI-H23 lung): > 50 µM | GI50 (SF-268 CNS): > 50 µM | TGI (SF-268 CNS): > 50 µM | GI50 (SNB-78 CNS): > 50 µM | TGI (SNB-78 CNS): > 50 µM | GI50 (HOP-92 NSCLC): > 50 µM | TGI (HOP-92 NSCLC): > 50 µM | GI50 (K-562 leukemia): > 23 µM | TGI (K-562 leukemia): > 33.7 µM | GI50 (TK-10 renal): > 50 µM | TGI (TK-10 renal): > 50 µM | GI50 (LXFL 529 NSCLC): > 41.6 µM | TGI (LXFL 529 NSCLC): > 50 µM | GI50 (MALME-3M melanoma): > 50 µM | TGI (MALME-3M melanoma): > 50 µM | GI50 (HCT-15 colon): > 22.3 µM | TGI (HCT-15 colon): > 32.1 µM | GI50 (A498 renal): > 50 µM | TGI (A498 renal): > 50 µM | GI50 (UACC-62 melanoma): > 50 µM | TGI (UACC-62 melanoma): > 50 µM | GI50 (HCT-116 colon): 13.6 µM | TGI (HCT-116 colon): 34.4 µM | GI50 (KM20L2 colon): > 50 µM | TGI (KM20L2 colon): > 50 µM | GI50 (M14 melanoma): > 50 µM | TGI (M14 melanoma): > 50 µM | GI50 (DMS 273 small cell lung): > 43.9 µM | TGI (DMS 273 small cell lung): > 50 µM | GI50 (XF 498 CNS): > 50 µM | TGI (XF 498 CNS): > 50 µM | GI50 (DLD-1 colon): > 32.1 µM | TGI (DLD-1 colon): > 50 µM | GI50 (COLO 205 colon): > 22.2 µM | TGI (COLO 205 colon): > 31.2 µM | GI50 (HT29 colon): > 50 µM | TGI (HT29 colon): > 50 µM | GI50 (CAKI-1 renal): > 50 µM | TGI (CAKI-1 renal): > 50 µM | GI50 (OVCAR-3 ovarian): > 50 µM | TGI (OVCAR-3 ovarian): > 50 µM | GI50 (KM12 colon): > 50 µM | TGI (KM12 colon): > 50 µM | GI50 (NCI-H460 lung): > 50 µM | TGI (NCI-H460 lung): > 50 µM | GI50 (HL-60(TB) leukemia): > 22.9 µM | TGI (HL-60(TB) leukemia): > 30.5 µM | GI50 (NCI-H522 lung): > 50 µM | TGI (NCI-H522 lung): > 50 µM | GI50 (SW-620 colon): > 21.7 µM | TGI (SW-620 colon): > 31.5 µM | GI50 (RXF-631 renal): > 50 µM | TGI (RXF-631 renal): > 50 µM | GI50 (IGROV1 ovarian): > 50 µM | TGI (IGROV1 ovarian): > 50 µM | GI50 (OVCAR-8 ovarian): > 50 µM | TGI (OVCAR-8 ovarian): > 50 µM | GI50 (UO-31 renal): > 50 µM | TGI (UO-31 renal): > 50 µM | GI50 (SN12C renal): > 50 µM | TGI (SN12C renal): > 50 µM | GI50 (SNB-75 CNS): 31.8 µM | TGI (SNB-75 CNS): > 50 µM | GI50 (U251 CNS): > 38.4 µM | TGI (U251 CNS): > 50 µM | GI50 (SR leukemia): 19 µM | TGI (SR leukemia): > 50 µM
